For 20 compounds, inhibition results are on record in ChEMBL document CHEMBL1208785, “Discovery of novel alpha7 nicotinic receptor antagonists” (Bioorg Med Chem Lett, 2010).

The target in this test is Neuronal acetylcholine receptor subunit alpha-7 (Rattus norvegicus) (UniProt Q05941). As to the kind of experiment: Displacement of [125I]alpha-bungarotoxin from alpha7 nicotinic acetylcholine receptor in rat brain membrane at 10 uM. The test is classed as cell membranes.
Neuronal acetylcholine receptor subunit alpha-7 (Rattus norvegicus), sequence (Q05941 whole entry): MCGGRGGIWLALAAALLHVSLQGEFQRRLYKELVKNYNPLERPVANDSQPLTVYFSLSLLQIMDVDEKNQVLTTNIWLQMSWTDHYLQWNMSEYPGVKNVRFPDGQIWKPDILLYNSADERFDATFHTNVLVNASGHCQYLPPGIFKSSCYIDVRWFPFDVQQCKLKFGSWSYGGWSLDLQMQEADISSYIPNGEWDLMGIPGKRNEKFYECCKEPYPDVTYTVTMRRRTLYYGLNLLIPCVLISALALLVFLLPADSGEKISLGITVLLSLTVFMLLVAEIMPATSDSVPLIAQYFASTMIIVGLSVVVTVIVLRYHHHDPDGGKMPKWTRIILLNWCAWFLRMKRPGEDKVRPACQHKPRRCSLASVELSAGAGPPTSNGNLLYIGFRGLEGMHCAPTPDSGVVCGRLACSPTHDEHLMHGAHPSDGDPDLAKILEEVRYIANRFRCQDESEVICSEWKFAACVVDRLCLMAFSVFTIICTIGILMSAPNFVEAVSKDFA

For the compound `COc1ccc(Cn2cc(C(=O)NCC3CCN(CCc4ccccc4)CC3)nn2)cc1`, the inhibition turned out to be 9.5%. In the case of `Cc1c(C(=O)NC2CCN(Cc3ccccc3)CC2)cnn1-c1ccc(Cl)cc1`, the inhibition was determined as 64.1%.

Compound `O=C(NCC1CCN(CCc2ccccc2)CC1)c1cn(Cc2ccccc2Cl)nn1` showed an inhibition of 23.4%. The value for `Cc1ccc(-c2c(C(=O)N(C)C3CCN(C)CC3)cnn2-c2ccccc2)cc1` was 12.1%; that for `Cc1c(C(=O)N(C)C2CCN(C)CC2)cnn1-c1ccc(F)cc1` was 11.9%.

The compound `COCCN1CCC(CN(C)C(=O)c2cn(Cc3ccccc3Cl)nn2)CC1` showed an inhibition of 43%.

`Cc1c(C(=O)NC2CCN(Cc3ccccc3)CC2)cnn1-c1ccc(F)cc1` gave an inhibition of 50%. On to `O=C(NCC1CCN(C2CCCC2)CC1)c1cn(Cc2ccccc2Cl)nn1`, for which the inhibition was 21.6%. The value for `O=C(NCC1CCN(Cc2ccccc2)CC1)c1cn(Cc2ccc3ccccc3c2)nn1` was 70.5%; that for `COCCN1CCC(CNC(=O)c2cn(Cc3ccc(Cl)cc3)nn2)CC1` was 27.3%; that for `CN1CCC(N(C)C(=O)c2cnn(-c3ccccc3-c3ccco3)c2C2CC2)CC1` was 10.5%.

As to `O=C(NCC1CCN(CCc2ccccc2)CC1)c1cn(Cc2ccc(Cl)cc2)nn1`, the inhibition was 18.3%. In the case of `Cc1ccc(-c2c(C(=O)NC3CCN(C)CC3)cnn2-c2ccccc2)cc1` it was 23.4%; in that of `CC(C)CN1CCC(CN(C)C(=O)c2cn(Cc3ccccc3Cl)nn2)CC1`, 72.3%; in that of `Cc1ccccc1Cn1cc(C(=O)NCC2CCN(CCc3ccccc3)CC2)nn1`, 25.2%. As to `CCCc1c(C(=O)NC2CCN(C)CC2)cnn1-c1ccccc1`, the inhibition came out at 3.1%. In the case of `Cc1c(C(=O)N(C)C2CCN(C)CC2)cnn1-c1ccc(Cl)cc1` it was 13.5%; in that of `CC(C)CN1CCC(CN(C)C(=O)c2cn(Cc3cc(F)ccc3F)nn2)CC1`, 59.2%; in that of `CCCc1c(C(=O)NC2CCNCC2)cnn1-c1ccccc1`, 1%. The value for `CCCc1c(C(=O)NC2CCN(Cc3ccccc3)CC2)cnn1-c1ccccc1` was 83.8%.
